We go through 1 compound from patent US10487045B2, “Adamantane derivative and use thereof” (TOHOKU UNIVERSITY, priority 2016, dated 2019).

One test deals with T1, Kir6.2 channel (Mus musculus, UniProt Q61743).
T1 construct: expressed in transfected cells; host or cells: Neuro2A (N2A) cells, transient transfection with pcDNA3.1-Kir6.2 (gift of Dr. Toru Ishizuka, Tohoku University)
T1 sequence (Q61743 1-390): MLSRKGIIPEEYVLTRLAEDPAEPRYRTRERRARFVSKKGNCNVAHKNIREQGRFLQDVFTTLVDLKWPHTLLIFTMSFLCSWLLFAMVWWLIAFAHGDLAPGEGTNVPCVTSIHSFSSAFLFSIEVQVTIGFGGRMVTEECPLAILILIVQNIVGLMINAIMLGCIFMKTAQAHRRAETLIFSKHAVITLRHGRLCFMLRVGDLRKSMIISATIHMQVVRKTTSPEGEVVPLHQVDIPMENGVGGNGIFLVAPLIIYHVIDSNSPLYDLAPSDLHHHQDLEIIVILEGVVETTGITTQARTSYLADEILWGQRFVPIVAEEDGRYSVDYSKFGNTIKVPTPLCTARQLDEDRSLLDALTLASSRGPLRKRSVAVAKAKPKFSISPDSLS
In words: Patch-clamp measurement of outward potassium current in Kir6.2 channel-overexpressing cells. Conditions: 10 nM TP-014, Kir6.2 channel-overexpressing cells, membrane potential changed toward a plus side. It is filed as cell-based. How it is done: Using Kir6.2 channel-overexpressing cells obtained in Test Example 1, potassium current flowing outside from the cells was measured by an ordinary patch-clamp method. ATP-sensitive potassium channel (Kir6.2 channel) was localized in the cell membrane of the nerve cells. If the channel is inhibited and closed, the threshold of the nerve cell membrane rises to produce a state analogous to the state where an action potential is temporarily generated, with the result that potassium current flows out from cells outside and, in place, calcium current flows into the cells from outside. […] This was confirmed by applying immunoblotting (the same conditions as in Test Example 1 were employed except that anti-Kir6.2 channel antibody, n=5) with an anti-Kir6.2 channel antibody (prepared based on a customary method) to Kir6.2 channel-overexpressing cells (prepared by the aforementioned method).

A further test has as its system APP23 mice. In words: Long-term potentiation (LTP) in hippocampal slices, electrophysiological technique. It is filed as in vivo. Conditions: hippocampal slices of APP23 mice chronically treated. How it is done: FIG. 4e to FIG. 4g show the results of long-term potentiation phenomenon (LTP)(serving as an index of memory formation) analyzed by an electrophysiological technique. The hippocampus in the brain plays an important role in memorization. The hippocampus was cut into slice sections (400 micrometers in thickness). The slice sections were placed in an artificial cerebrospinal fluid (126 mM NaCl, 5 mM KCL, 26 mM NaHCO3, 1.3 mM MgSO4-7H2O, 1.26 mM KH2PO4, 2.4 mM CaCl2-2H2O, 10 mM glucose) saturated with a 95% O2/5% CO2 gas at 34° C. for two hours and recovered. The hippocampal slice sections were transferred to a measuring chamber and the artificial cerebrospinal fluid containing TP-014 was perfused. The activity of the nerve cells when electrical stimulation was applied was recorded and the postsynaptic assembly potential (fEPSP) was measured. Based on them, the degree of LTP improvement was evaluated. Thereafter, an electrical stimulation (100 Hz) was applied to the hippocampus to cause a […] (it is considered that memory is formed by a […] in the hippocampus). It was confirmed that an increase rate of the neuronal excitation decreases in APP23 mice; whereas the increase rate is improved in the mice chronically treated with TP-014.

As to `O=C(N[C@@H](c1ccccc1)[C@H]1[C@H]2C[C@@H]3C[C@](Cl)(C2)C[C@@]1(OC(=O)C(F)(F)F)C3)C(F)(F)F` [TP-014, (1S,2R,3S,5S,7S)-5-chloro-2-((R)-phenyl(2,2,2-trifluoroacetamido)methyl)adamantan-1-yl 2,2,2-trifluoroacetate], the outward potassium current entry at Kir6.2 channel is “suppressed”. For the same compound, the “LTP, increase rate of neuronal excitation (fEPSP) after 100 Hz stimulation” value with APP23 mice is “improved”.
